The source of these data is US20220274954A1, “SUBSTITUTED N-PHENYL-N-AMINOUARCILS AND SALTS THEREOF AND USE THEREOF AS HERBICIDAL AGENTS” (Bayer Aktiengesellschaft, priority 2019, published 2022).

Common to all, as to type: in vivo
Series [1] has as its system Veronica persica. In words: Post-emergence herbicidal action. Here is the method:
(§1) Seeds of monocotyledonous and dicotyledonous weeds and crop plants were placed in sandy loam in plastic or wood-fiber pots, covered with soil and cultivated in a greenhouse under controlled growth conditions. 2 to 3 weeks after sowing, the test plants were treated at the one-leaf stage. The compounds of the invention, formulated in the form of wettable powders (WP) or as emulsion concentrates (EC), were then sprayed onto the green parts of the plants as aqueous suspension or emulsion with addition of 0.5% additive at a water application rate of […] (converted). After the test plants had been kept in the greenhouse under optimum growth conditions for about 3 weeks, the activity of the preparations was rated visually in comparison to untreated controls. For example, 100% activity=the plants have died, 0% activity=like control plants. Tables A1 to A14 below show the effects of selected compounds of the general formula (I) according to Tables I.1 to I.34 on various harmful plants and at an application rate corresponding to 20 g/ha and less, which were obtained by the experimental procedure mentioned above.

Series [2] has as its system Pharbitis purpurea. In words: Post-emergence herbicidal action. The procedure:
as §1

Series [3] has as its system Avena fatua. In words: Post-emergence herbicidal action. Particulars: application rate 20 g/ha. Here is the method: as §1
The test system of series [4] is Abutilon theophrasti. As to the kind of experiment: Post-emergence herbicidal action. The procedure: as §1
Series [5] concerns Matricaria inodora. As to the kind of experiment: Post-emergence herbicidal action. The procedure: as §1
The test system of series [6] is Viola tricolor. In words: Post-emergence herbicidal action. The procedure: as §1
Series [7] has as its system Alopecurus myosuroides. In words: Post-emergence herbicidal action. The procedure:
as §1

Series [8] relates to Amaranthus retroflexus. In words: Post-emergence herbicidal action. Here is the method: as §1
The test system of series [9] is Echinochloa crus-galli. In words: Post-emergence herbicidal action. The procedure: as §1
Series [10] deals with Triticum aestivum. In words: Post-emergence crop plant compatibility. Particulars: application rate 1.25 g/ha. Here is the method:
as §1, with “plants.” for “plants. Tables A1 to A14 below show the effects of selected compounds of the general formula (I) according to Tables I.1 to I.34 on various harmful plants and at an application rate corresponding to 20 g/ha and less, which were obtained by the experimental procedure mentioned above.”
(§2) Here, the observed effects on selected crop plants are stated in comparison to the untreated controls (values in %).

Series [11] has as its system Polygonum convolvulus. As to the kind of experiment: Post-emergence herbicidal action. The conditions noted are these: Fallopia convolvulus, 504 h, read-out: Polygonum convolvulus (efficacy in %). The procedure:
as §1

Series [12] deals with Digitaria sanguinalis. As to the kind of experiment: Post-emergence herbicidal action. Particulars: 504 h, read-out: Digitaria sanguinalis (efficacy in %). The procedure:
as §1

Series [13] deals with Setaria viridis. As to the kind of experiment: Post-emergence herbicidal action. The conditions noted are these: 504 h, read-out: Setaria viridis (efficacy in %). The procedure: as §1
The subject of series [14] is Zea mays. As to the kind of experiment: Post-emergence crop plant compatibility. Particulars: application rate 1.25 g/ha. Here is the method:
as §1, with “plants.” for “plants. Tables A1 to A14 below show the effects of selected compounds of the general formula (I) according to Tables I.1 to I.34 on various harmful plants and at an application rate corresponding to 20 g/ha and less, which were obtained by the experimental procedure mentioned above.”
as §2

Series [15] relates to Oryza sativa. In words: Post-emergence crop plant compatibility. Particulars: application rate 1.25 g/ha. The procedure: as §1, with “plants.” for “plants. Tables A1 to A14 below show the effects of selected compounds of the general formula (I) according to Tables I.1 to I.34 on various harmful plants and at an application rate corresponding to 20 g/ha and less, which were obtained by the experimental procedure mentioned above.”
as §2

Take `N#CCOC(=O)COc1ncccc1Sc1cc(-n2c(=O)cc(C(F)(F)F)n(N)c2=O)c(F)cc1Cl` [I.1-176]: the “Veronica persica (efficacy in %)” value in series [1] (application rate 5 g/ha) and in series [1] (application rate 20 g/ha) was 100% each time. Moreover, the “Pharbitis purpurea (efficacy in %)” value in series [2] (application rate 5 g/ha) and in series [2] (application rate 20 g/ha) was 100% in each case. For the same compound, the “Avena fatua (efficacy in %)” value in series [3] was 80%. The “Abutilon theophrasti (efficacy in %)” value in series [4] (application rate 5 g/ha) and in [4] (application rate 20 g/ha) was 100% in each case. In addition, the “Matricaria inodora (efficacy in %)” value in [5] (application rate 5 g/ha) and in series [5] (application rate 20 g/ha) was 100% each time. Further, the “Viola tricolor (efficacy in %)” value in series [6] (application rate 5 g/ha) and in series [6] (application rate 20 g/ha) was 100% each time. Also, the entries for the “Alopecurus myosuroides (efficacy in %)” value in series [7] (application rate 5 g/ha) and in series [7] (application rate 20 g/ha) were 90% and 100%, respectively. Besides, the “Amaranthus retroflexus (efficacy in %)” value in series [8] (application rate 5 g/ha) and in [8] (application rate 20 g/ha) was 100% each time. For the same compound, the “Echinochloa crus-galli (efficacy in %)” value is recorded as 90% in [9] (application rate 5 g/ha) and 100% in series [9] (application rate 20 g/ha). Also, the “Triticum aestivum (efficacy in %)” value in series [10] was 20%.

As for `Nn1c(C(F)(F)F)cc(=O)n(-c2cc(Sc3cccnc3OCC(=O)OCc3ccccc3)c(Cl)cc2F)c1=O` [I.1-457, Benzyl {[3-({5-[3-amino-2,6-dioxo-4-(trifluoromethyl)-3,6-dihydropyrimidin-1(2H)-yl]-2-chloro-4-fluorophenyl}sulfanyl)pyridin-2-yl]oxy}acetate], the pest or weed control at 5 g/ha worked out at 100% in series [1] (Veronica persica, 504 h, application rate 5 g/ha, read-out: Veronica persica (efficacy in %)); 100% in series [11] (application rate 5 g/ha); 100% in series [2] (Ipomoea purpurea, 504 h, application rate 5 g/ha, read-out: Pharbitis purpurea (efficacy in %)); 100% in series [4] (Abutilon theophrasti, 504 h, application rate 5 g/ha, read-out: Abutilon theophrasti (efficacy in %)); 100% in series [6] (Viola tricolor, 504 h, application rate 5 g/ha, read-out: Viola tricolor (efficacy in %)); 100% in series [12] (application rate 5 g/ha). Moreover, the pest or weed control at 5 g/ha in series [13] (application rate 5 g/ha) worked out at 100%; in series [8] (Amaranthus retroflexus, 504 h, application rate 5 g/ha, read-out: Amaranthus retroflexus (efficacy in %)), 100%; in [9] (Echinochloa crus-galli, 504 h, application rate 5 g/ha, read-out: Echinochloa crus-galli (efficacy in %)), 80%. In addition, the pest or weed control at 20 g/ha in series [1] (Veronica persica, 504 h, application rate 20 g/ha, read-out: Veronica persica (efficacy in %)) was found to be 100%; in [11] (application rate 20 g/ha), 100%; in series [2] (Ipomoea purpurea, 504 h, application rate 20 g/ha, read-out: Pharbitis purpurea (efficacy in %)), 100%; in [4] (Abutilon theophrasti, 504 h, application rate 20 g/ha, read-out: Abutilon theophrasti (efficacy in %)) it was 100%; in series [5] (Tripleurospermum inodorum, 504 h, application rate 20 g/ha, read-out: Matricaria inodora (efficacy in %)), 90%; in series [6] (Viola tricolor, 504 h, application rate 20 g/ha, read-out: Viola tricolor (efficacy in %)) it was 100%. The pest or weed control at 20 g/ha came out at 100% in series [12] (application rate 20 g/ha); 100% in series [13] (application rate 20 g/ha); 100% in [8] (Amaranthus retroflexus, 504 h, application rate 20 g/ha, read-out: Amaranthus retroflexus (efficacy in %)); 100% in series [9] (Echinochloa crus-galli, 504 h, application rate 20 g/ha, read-out: Echinochloa crus-galli (efficacy in %)). In addition, in [3], the “Avena fatua (efficacy in %)” value worked out at 80%. The “Alopecurus myosuroides (efficacy in %)” value in series [7] (application rate 5 g/ha) and in series [7] (application rate 20 g/ha) was 80% in each case. Further, the “Triticum aestivum (efficacy in %)” value in series [10] stood at 20%. The “Zea mays (efficacy in %)” value in [14] is 20%. Further, in series [15], the “Oryza sativa (efficacy in %)” value was 0%.
